Data reported in PubChem BioAssay AID1963973 (Molecular Pharmacology Branch, DTP, NCI, 2024).

Test system: 883617-216-R-J1-PDC tumor spheroids, viability
Assay: Anticancer human tumor 883617-216-R-J1-PDC patient-derived bladder carcinoma cell line growth inhibition [PI3K]
Details: spheroids with HUVEC and MSC; for IC50: curve of first compound; for viability, T/C: stronger effect = lower value
Method in brief: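 High-throughput combination screen: PI3K inhibitors crossed with targeted small molecules on complex spheroids of tumor cells, HUVEC and MSCs at 37 degrees C, 5% CO2. Top concentration was at or near clinical Cmax (otherwise 10 microM), with half-log decrements.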
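Also: spheroids exposed to agents for 7 days before the viability read.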

IC50 (second compound 0.0316 µM): > 100 nM
IC50 (second compound 0.1 µM): 23.7 nM
IC50 (second compound 0.316 µM): < 0.316 nM
IC50 (second compound 1 µM): < 0.316 nM
IC50 (second compound 3.16 µM): < 0.316 nM
IC50 (second compound 10 µM): < 0.316 nM
SMILES: CC(=O)c1c(C)c2cnc(Nc3ccc(N4CCNCC4)cn3)nc2n(C2CCCC2)c1=O + Cc1nc(NC(=O)N2CCCC2C(N)=O)sc1-c1ccnc(C(C)(C)C(F)(F)F)c1
viability, T/C (second compound 0.0316 µM, first compound 0.000316 µM): 81%
viability, T/C (second compound 0.0316 µM, first compound 0.001 µM): 70.3%
viability, T/C (second compound 0.0316 µM, first compound 0.00316 µM): 82.5%
viability, T/C (second compound 0.0316 µM, first compound 0.01 µM): 68.1%
viability, T/C (second compound 0.0316 µM, first compound 0.0316 µM): 58.7%
viability, T/C (second compound 0.0316 µM, first compound 0.1 µM): 50.3%
viability, T/C (second compound 0.1 µM, first compound 0.000316 µM): 65.4%
viability, T/C (second compound 0.1 µM, first compound 0.001 µM): 63.5%
viability, T/C (second compound 0.1 µM, first compound 0.00316 µM): 62.8%
viability, T/C (second compound 0.1 µM, first compound 0.01 µM): 57.8%
viability, T/C (second compound 0.1 µM, first compound 0.0316 µM): 47.4%
viability, T/C (second compound 0.1 µM, first compound 0.1 µM): 37.6%
viability, T/C (second compound 0.316 µM, first compound 0.000316 µM): 47.7%
viability, T/C (second compound 0.316 µM, first compound 0.001 µM): 43.8%
viability, T/C (second compound 0.316 µM, first compound 0.00316 µM): 33%
viability, T/C (second compound 0.316 µM, first compound 0.01 µM): 43.2%
viability, T/C (second compound 0.316 µM, first compound 0.0316 µM): 34.5%
viability, T/C (second compound 0.316 µM, first compound 0.1 µM): 26.3%
viability, T/C (second compound 1 µM, first compound 0.000316 µM): 26.7%
viability, T/C (second compound 1 µM, first compound 0.001 µM): 31.5%
viability, T/C (second compound 1 µM, first compound 0.00316 µM): 25.7%
viability, T/C (second compound 1 µM, first compound 0.01 µM): 23.3%
viability, T/C (second compound 1 µM, first compound 0.0316 µM): 21.1%
viability, T/C (second compound 1 µM, first compound 0.1 µM): 17.2%
viability, T/C (second compound 3.16 µM, first compound 0.000316 µM): 12.9%
viability, T/C (second compound 3.16 µM, first compound 0.001 µM): 11.8%
viability, T/C (second compound 3.16 µM, first compound 0.00316 µM): 13.6%
viability, T/C (second compound 3.16 µM, first compound 0.01 µM): 14.4%
viability, T/C (second compound 3.16 µM, first compound 0.0316 µM): 11.7%
viability, T/C (second compound 3.16 µM, first compound 0.1 µM): 11.6%
viability, T/C (second compound 10 µM, first compound 0.000316 µM): 8.2%
viability, T/C (second compound 10 µM, first compound 0.001 µM): 6.55%
viability, T/C (second compound 10 µM, first compound 0.00316 µM): 6.27%
viability, T/C (second compound 10 µM, first compound 0.01 µM): 7.44%
viability, T/C (second compound 10 µM, first compound 0.0316 µM): 6.18%
viability, T/C (second compound 10 µM, first compound 0.1 µM): 5.86%
